Test results as given in PubChem BioAssay (NCI).
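Method: 48-hour compound exposure of cells in 96-well plates, five concentrations, linear interpolation of endpoints. Here, GI50 denotes the concentration required for 50% inhibition of growth. TGI denotes the concentration required for complete inhibition of growth.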

Key:
Assay in all cases: NCI anticancer screen, dose series, 48 h
MALME-3M melanoma = test system: MALME-3M melanoma
HOP-62 NSCLC = test system: HOP-62 NSCLC
UACC-257 melanoma = test system: UACC-257 melanoma
NCI-H226 lung = test system: NCI-H226 lung
SNB-75 CNS = test system: SNB-75 CNS
NCI/ADR-RES ovarian = test system: NCI/ADR-RES ovarian
MDA-MB-231 breast = test system: MDA-MB-231 breast
CAKI-1 renal = test system: CAKI-1 renal
A498 renal = test system: A498 renal
IGROV1 ovarian = test system: IGROV1 ovarian

SMILES | TGI (MALME-3M melanoma) [µM] | TGI (HOP-62 NSCLC) [µM] | TGI (UACC-257 melanoma) [µM] | TGI (NCI-H226 lung) [µM] | TGI (SNB-75 CNS) [µM] | TGI (NCI/ADR-RES ovarian) [µM] | TGI (MDA-MB-231 breast) [µM] | TGI (CAKI-1 renal) [µM] | TGI (A498 renal) [µM] | TGI (IGROV1 ovarian) [µM] | GI50 (NCI-H226 lung) [µM]
CCOC(=O)C(NC(=O)N(C1=NCC(C)S1)C1CCCCC1)(OC)C(F)(F)F (stereo not drawn) | > 100 | 41.7 | > 100 | 47.5 | 75.1 | > 100 | > 100 | > 100 | 44.4 |  | 
COc1cccc(CC(C)NCC(O)c2ccc(O)c(O)c2)c1 (stereo not drawn) | > 100 | > 100 | > 100 | 90.2 | > 100 | > 100 | 60.1 | > 100 | > 100 | > 100 | 
C(=C\c1cccc(/C=C/c2ccccn2)n1)/c1ccccn1 | 39.9 | > 100 | > 100 | > 100 | > 100 | > 100 | > 100 | > 100 | 71.7 | > 100 | 
c1ccc(CCNCc2ccco2)nc1 | > 100 | > 100 | > 100 | > 100 | > 100 | > 100 | > 100 | > 100 | > 100 | > 100 | 
CC1OC2=N[C@@H]1C(=O)N[C@@H](C(C)C)C1=N[C@H](C(=O)N[C@@H](C(C)C)C3=N[C@H](C(=O)N[C@@H](C(C)C)C4=N[C@H](C(=O)N[C@H]2C(C)C)C(C)O4)C(C)O3)C(C)O1 (stereo partly drawn) | > 10 | > 10 | > 10 | > 10 | > 10 | > 10 | > 10 | > 10 | > 10 | > 10 | 
Cc1ccncc1.F[B-](F)(F)F.[Pt+2].c1ccc(-c2cccc(-c3ccccn3)n2)nc1 | 20.1 | > 55.2 | 44.5 | 5.36 | > 89.7 | 11.7 | > 100 | > 62.1 | 45.1 | > 30.6 | 0.618
N=C1N(S(=O)(=O)c2ccccc2)[C@@H](Cc2ccccc2)[C@H](c2ccccc2)C1(c1ccccc1)c1ccccc1 | > 100 | > 100 | > 100 |  | > 100 | > 100 | > 100 | > 100 | > 100 | > 100 | 
C=C(CCC(C)C1CCC2C3=C(C(=O)CC21C)C1(C)CCC(=O)[C@@H](C)C1CC3=O)C(C)C(=O)O (stereo partly drawn) | > 100 | > 100 | > 100 | > 100 | > 100 | > 100 | > 100 | 72.3 | > 100 | > 100 | 
C/C(=C\c1ccccn1)c1ccccn1 | > 100 | > 100 | > 100 |  | > 100 | > 100 | > 100 | > 100 | > 100 | > 100 | 
CCOP(=O)(OCC)C(Nc1cccc(F)c1)c1ccccc1 (stereo not drawn) | > 100 | > 100 | > 100 | > 100 | > 100 | > 100 | > 100 | > 100 | > 100 | > 100 | 
